Measured values: ChEMBL document CHEMBL4364352, “Inhibitors of KRAS May Potentially Provide Effective Cancer Treatment” (ACS Med Chem Lett, 2019)

Assays:
GTPase KRas [1] = target: T1, GTPase KRas (Homo sapiens, UniProt P01116, G12C); assay: Inhibition of KRAS G12C mutant in human MIAPaCa2 cells assessed as increase in accumulation of GDP bound KRAS G12C mutant protein incubated for 6 hrs; format: cell-based
GTPase KRas [2] = target: T1, GTPase KRas; assay: Inhibition of KRAS G12C mutant in human NCI-H358 cells assessed as increase in accumulation of GDP bound KRAS G12C mutant protein incubated for 6 hrs; format: cell-based

T1 sequence (P01116 whole entry G12C): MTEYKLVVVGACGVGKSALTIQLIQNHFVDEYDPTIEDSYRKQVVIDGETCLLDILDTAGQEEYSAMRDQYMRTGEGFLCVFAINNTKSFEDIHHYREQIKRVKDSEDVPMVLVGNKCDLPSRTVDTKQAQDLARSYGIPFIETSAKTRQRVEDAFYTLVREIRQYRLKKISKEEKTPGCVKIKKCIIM

SMILES: C=CC(=O)N1CCN(c2ncnc3c2CCC(c2c(C)ccc4[nH]ncc24)C3)[C@@H](C)C1 (stereo partly drawn)
- IC50 (GTPase KRas [1]): 4860 nM

SMILES: C=CC(=O)N1CCN(c2nc(OC[C@H]3CCCN3C)nc3c2C[C@@H](C)[C@H](c2c(C)ccc4[nH]ncc24)C3)CC1
- IC50 (GTPase KRas [1]): 236 nM
- IC50 (GTPase KRas [2]): 129 nM
